Among the test systems are A498; COLO 205; EKVX; HCC 2998; HCT-116; HOP-92; HT-29; IGROV-1; MDA-MB-231; NCI-H522; OVCAR-4; OVCAR-8; SF-268; SNB-19; TK-10; UO-31; K562; LOX IMVI; RXF 393.
What all share (assay): growth of human tumour cells (NCI), 48 h

Where “and” joins values, the source holds several entries; their conditions need not be identical. Identical values can stand only once.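 Dose response: 5 concentrations. Exposure: 48 h. Format: 96-well plates. Endpoint: linear interpolation; highest concentration if not reached. GI50 is the concentration that inhibits growth by half.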 Calls of active or inactive are those of the source. Rule as the data show it: active = GI50 up to about 1.1 µM and inactive = higher.

`Cn1c(=O)oc2nc(-c3ccccc3)cc(C(F)(F)F)c21`: the GI50 with A498 was 39.2 µM (inactive); in the test on COLO 205, > 100 µM (inactive); in the test with EKVX, > 100 µM (inactive); in the test on HCC 2998, > 100 µM (inactive); with HCT-116, 9.33 µM (inactive); with HOP-92 it was 35.7 µM (inactive). In addition, the GI50 was 33.2 µM (inactive) with HT-29; > 100 µM (inactive) in the test on IGROV-1; > 100 µM (inactive) in the test on MDA-MB-231; > 100 µM (inactive) with NCI-H522; 45.4 µM (inactive) in the test on OVCAR-4; > 100 µM (inactive) with OVCAR-8. For the same compound, the GI50 with SF-268, in the test with SNB-19, in the test with TK-10 and in the test with UO-31 was > 100 µM (inactive) throughout.

Regarding `CC(=O)OCC1OC(n2c(-c3ccccc3)c(C(C)=O)c(-c3cccc4ccccc34)c(C#N)c2=S)C(OC(C)=O)C(OC(C)=O)C1OC(C)=O` (stereo not given), the GI50 in the test with A498 is > 100 µM (inactive); in the test on COLO 205 it was > 100 µM (inactive); with EKVX it was 83.6 µM (inactive); in the test on HCC 2998, > 100 µM (inactive); with HCT-116, > 100 µM (inactive); with HT-29 it was > 100 µM (inactive). In addition, the GI50 in the test on IGROV-1 was > 100 µM (inactive); in the test on K562, > 100 µM (inactive); in the test with LOX IMVI it was > 100 µM (inactive); with MDA-MB-231 it was > 100 µM (inactive) and 54.1 µM (inactive); with NCI-H522, > 100 µM (inactive); in the test on OVCAR-4, 28.7 µM (inactive) and 17.9 µM (inactive). Further, the GI50 with OVCAR-8 was > 100 µM (inactive); with RXF 393, > 100 µM (inactive); in the test with SF-268 it was > 100 µM (inactive); in the test on SNB-19, > 100 µM (inactive); with TK-10 it was > 100 µM (inactive); in the test with UO-31, < 0.01 µM (active).

On to `CN(C)CCNC(=O)c1cnn(C)c1[N+](=O)[O-]`, for which the GI50 with A498 is > 100 µM (inactive); in the test with COLO 205, 21.6 µM (inactive); in the test with EKVX, > 100 µM (inactive); in the test with HCC 2998 it was > 100 µM (inactive); with HCT-116, 50.9 µM (inactive); in the test with HT-29, 33.4 µM (inactive). In addition, the GI50 with IGROV-1 was > 100 µM (inactive); in the test with K562, > 100 µM (inactive); in the test with LOX IMVI, 46.7 µM (inactive); with MDA-MB-231 it was > 100 µM (inactive); in the test on NCI-H522, > 100 µM (inactive); with OVCAR-4, 76.7 µM (inactive). Moreover, the GI50 in the test with OVCAR-8 was > 100 µM (inactive); in the test on RXF 393, 65.6 µM (inactive); in the test on SF-268, > 100 µM (inactive); in the test on SNB-19, > 100 µM (inactive); with TK-10, > 100 µM (inactive); in the test with UO-31, > 100 µM (inactive).

Consider `Nc1nc2cc(CNc3ccc(C(=O)NC(CCC(=O)O)C(=O)O)cc3)ccc2nc1-c1ccccc1` (stereo not given), for which the GI50 in the test on A498, with COLO 205, in the test with EKVX, in the test on HCC 2998, with HCT-116 and with HT-29 was > 10 µM (inactive) throughout. Moreover, the GI50 with IGROV-1, in the test with K562, in the test with LOX IMVI, in the test with MDA-MB-231, in the test with NCI-H522 and in the test on OVCAR-4 was > 10 µM (inactive) in each case. Besides, the GI50 in the test with OVCAR-8, with RXF 393, with SF-268, in the test with SNB-19, in the test on TK-10 and with UO-31 was > 10 µM (inactive) throughout.

For the origin of these results see ChEMBL document CHEMBL1201862, “PubChem BioAssay data set” (2004).
